ChEMBL document CHEMBL4340507, “Identification of an indol-based multi-target kinase inhibitor through phenotype screening and target fishing using inverse virtual screening approach” (Eur J Med Chem, 2019)
Active and inactive are the calls of the source. The rule behind the calls is not given here.

Experiments:
HeLa [1] = test: Antiproliferative activity against human HeLa cells assessed as decrease in cell viability measured after 72 hrs by MTT assay; type: functional, cell-based
Jurkat = test: Antiproliferative activity against human Jurkat T cells assessed as decrease in cell viability measured after 24 to 72 hrs by MTT assay; type: functional, cell-based
PC-3 = test: Antiproliferative activity against human PC3 cells assessed as decrease in cell viability measured after 72 hrs by MTT assay; type: functional, cell-based; details: PC-3, 72 h
MCF7 = test: Antiproliferative activity against human MCF7 cells assessed as decrease in cell viability measured after 72 hrs by MTT assay; type: functional, cell-based; details: MCF7, 72 h
IEC-6 [2] = test: Cytotoxicity against rat IEC-6 cells assessed as reduction in cell viability measured after 24 to 72 hrs by MTT assay; type: cell-based; details: for Activity: rat, iec-6
HeLa [3] = test: Cell cycle arrest in human HeLa cells assessed as decrease in accumulation at G2-phase at 0.1 to 0.6 uM after 24 hrs by propidium iodide staining-based FACS analysis; type: functional
IEC-6 [4] = test: Down regulation of ERK expression in rat IEC-6 cells at 0.6 uM after 24 hrs by FACS analysis; type: ADME, cell-based; details: iec-6, 24 h
IEC-6 [5] = test: Cell cycle arrest in rat IEC-6 cells assessed as increase in accumulation at S phase at 0.1 to 0.6 uM after 24 hrs by propidium iodide staining based FACS analysis; type: ADME; details: iec-6, 24 h
HeLa [6] = test: Induction of apoptosis in human HeLa cells assessed as increase in hypodiploid nuclei at 0.3 to 0.6 uM measured after 24 hrs by propidium iodide staining-based FACS analysis; type: functional, cell-based
HeLa [7] = test: Induction of apoptosis in human HeLa cells assessed as effect on PARP level at 0.1 to 0.6 uM after 24 hrs by FACS analysis; type: functional, cell-based
IEC-6 [8] = test: Induction of apoptosis in rat IEC-6 cells assessed as effect on PARP level at 0.1 to 0.6 uM after 24 hrs by FACS analysis; type: cell-based; details: iec-6, 24 h
IEC-6 [9] = test: Induction of ROS generation in rat IEC-6 cells at 0.1 to 0.6 uM measured after 24 hrs by H2DCF-DA staining-based FACS analysis; type: cell-based; details: iec-6, 24 h
IEC-6 [10] = test: Induction of apoptosis in rat IEC-6 cells assessed as increase in hypodiploid nuclei at 0.1 to 0.6 uM measured after 24 hrs by propidium iodide staining-based FACS analysis; type: cell-based; details: iec-6, 24 h
HeLa [11] = test: Induction of apoptosis in human HeLa cells assessed as increase in caspase 3 level at 0.1 to 0.6 uM after 24 hrs by FACS analysis; type: functional, cell-based
HeLa [12] = test: Induction of ROS generation in human HeLa cells at 0.1 to 0.6 uM measured after 24 hrs by H2DC-DA probe-based FACS analysis; type: functional, cell-based
IEC-6 [13] = test: Cell cycle arrest in rat IEC-6 cells assessed as accumulation at G0/G1-phase at 0.1 to 0.6 uM after 24 hrs by propidium iodide staining-based FACS analysis; type: ADME; details: iec-6, 24 h
HeLa [14] = test: Cell cycle arrest in human HeLa cells assessed as accumulation at G0/G1-phase at 0.1 to 0.6 uM after 24 hrs by propidium iodide staining-based FACS analysis; type: functional
IEC-6 [15] = test: Cell cycle arrest in rat IEC-6 cells assessed as decrease in accumulation at G2-phase at 0.1 to 0.6 uM after 24 hrs by propidium iodide staining-based FACS analysis; type: ADME; details: iec-6, 24 h
HeLa [16] = test: Inhibition of ERK phosphorylation in human HeLa cells at 0.6 uM after 24 hrs by FACS analysis; type: cell-based
IEC-6 [17] = test: Induction of apoptosis in rat IEC-6 cells assessed as increase in caspase 3 level at 0.1 to 0.6 uM after 24 hrs by FACS analysis; type: cell-based; details: iec-6, 24 h
[18] = Inhibition of ERK phosphorylation in rat IEC-6 cells at 0.6 uM after 24 hrs by FACS analysis; type: cell-based; details: iec-6, 24 h
IEC-6 [19] = test: Cytotoxicity against rat IEC-6 cells assessed as reduction in cell viability at 0.1 to 0.6 uM measured after 24 to 72 hrs by MTT assay; type: cell-based; details: iec-6, 0.6 µM
HeLa [20] = test: Down regulation of ERK expression in human HeLa cells at 0.1 to 0.6 uM after 24 hrs by FACS analysis; type: functional, cell-based

IC50 (HeLa [1]) | IC50 (Jurkat) | IC50 (PC-3) | IC50 (MCF7) | Compound | further results
8.18 µM | 34.4 µM | 84.3 µM | 20.2 µM | CN(Cc1ccc(-c2ccccc2)cc1)Cc1cn(C)c2ccc(CNc3ccc(F)cc3)cc12 | 
1.44 µM | 2.35 µM | 1.07 µM | 14 µM | COc1cccc2c1C(=O)c1c(O)c3c(c(O)c1C2=O)C[C@@](O)(C(=O)CO)C[C@@H]3O[C@H]1C[C@H](N)[C@H](O)[C@H](C)O1 [DOXORUBICIN] | 
16.6 µM | 51.8 µM | 30.8 µM | 20.7 µM | CN(CCc1ccc(Oc2ccccc2)cc1)Cc1cn(C)c2ccc(C(=O)Nc3ccc(F)cc3)cc12 | 
4.21 µM | 42.1 µM | 6.45 µM | 13.2 µM | COc1cc(CN(C)Cc2cn(C)c3ccc(C(=O)Nc4ccc(F)cc4)cc23)cc(OC)c1OC | 
7.23 µM | 6.21 µM | 5.41 µM | 1.26 µM | CCCn1cc(CNCCc2ccc(-c3ccccc3)cc2)c2cc(CNc3ccc(F)cc3)ccc21 | Activity (IEC-6 [2]): Toxic
23.6 µM | > 100 µM | > 100 µM | 54.4 µM | CN(Cc1ccc(-c2ccccc2)cc1)Cc1cn(C)c2ccc(C(=O)Nc3ccc(F)cc3)cc12 | 
9.98 µM | 35.6 µM | 56 µM | 37 µM | CN(Cc1ccc(Oc2ccccc2)cc1)Cc1cn(C)c2ccc(CNc3ccc(F)cc3)cc12 | 
73.2 µM | 60.4 µM | 52.2 µM | 3.04 µM | CN(CCc1ccc(-c2ccccc2)cc1)Cc1cn(C)c2ccc(C(=O)N3CCCCC3)cc12 | Activity (IEC-6 [2]): Non-Toxic
> 100 µM | > 100 µM | > 100 µM | 12.8 µM | CC(=O)N(CCc1ccc(-c2ccccc2)cc1)Cc1cn(C)c2ccc(C(=O)Nc3ccc(C)cc3)cc12 | 
19.6 µM | > 100 µM | 47.7 µM | 14.7 µM | CN(CCc1ccccc1)Cc1cn(C)c2ccc(C(=O)Nc3ccc(F)cc3)cc12 | 
 |  |  |  | N#Cc1c(Oc2ccc(F)c(NC(=O)Cc3cccc(C(F)(F)F)c3)c2)ccc2nc(NC(=O)C3CC3)sc12 | Activity (HeLa [3]): Active; Activity (IEC-6 [4]): Toxic; Activity (IEC-6 [5]): Toxic; Activity (HeLa [6]): Active; Activity (HeLa [7]): inactive; Activity (IEC-6 [8]): Non-Toxic; Activity (IEC-6 [9]): Toxic; Activity (IEC-6 [10]): Toxic; Activity (HeLa [11]): Active; Activity (HeLa [12]): Active; Activity (IEC-6 [13]): Toxic; Activity (HeLa [14]): Active; Activity (IEC-6 [15]): Toxic; inhibition (HeLa [16]): Active; Activity (IEC-6 [17]): Toxic; inhibition (INH) [18]: Active; Activity (IEC-6 [19]): Toxic; Activity (HeLa [20]): Active
24.3 µM | 83.8 µM | 45.3 µM | 7.07 µM | Cn1cc(CNCCc2ccc(-c3ccccc3)cc2)c2cc(C(=O)Nc3ccc(F)cc3)ccc21 | 
> 100 µM | > 100 µM | > 100 µM | 82.6 µM | CC(=O)N(CCc1ccc(-c2ccccc2)cc1)Cc1cn(C)c2ccc(C(=O)Nc3ccc(F)cc3)cc12 | 
24.8 µM | > 100 µM | 89.2 µM | 24.7 µM | CN1CCN(Cc2cn(C)c3ccc(C(=O)Nc4ccc(F)cc4)cc23)CC1 | 
0.95 µM | 3.68 µM | 9.41 µM | 4.55 µM | CN(Cc1cccc2ccccc12)Cc1cn(C)c2ccc(CNc3ccc(F)cc3)cc12 | IC50 (IEC-6 [2]; Rattus norvegicus, IEC-6): 0.59 µM
2.92 µM | 26.5 µM | 72.7 µM | 2.15 µM | CN(CCc1ccc(-c2ccccc2)cc1)Cc1cn(C)c2ccc(CNc3ccc(F)cc3)cc12 | 
67.6 µM | > 100 µM | 8.36 µM | 10.8 µM | O=C(Nc1ccc(F)cc1)c1ccc2c(ccn2Cc2ccc(-c3ccccc3)cc2)c1 | 
39.7 µM | > 100 µM | 37.5 µM | 63.9 µM | Cn1cc(CN2CCN(Cc3ccc(-c4ccccc4)cc3)CC2)c2cc(C(=O)Nc3ccc(F)cc3)ccc21 | 
69.8 µM | 68 µM | 50.3 µM | 3.04 µM | Cc1ccc(NC(=O)c2ccc3c(c2)c(CN(C)CCc2ccc(-c4ccccc4)cc2)cn3C)cc1 | Activity (IEC-6 [2]): Non-Toxic
14.7 µM | 72 µM | 2.08 µM | 76.4 µM | Cn1cc(CNCCc2ccc(-c3ccccc3)cc2)c2cc(CNc3ccc(F)cc3)ccc21 | 
> 100 µM | 79.2 µM | 87.5 µM | 12.2 µM | CCNC(=O)c1ccc2c(c1)c(CN(C)CCc1ccc(-c3ccccc3)cc1)cn2C | 
